Assays:
Type in all cases: in vivo
[1] = tested on: Veronica persica (VERPE); experiment: Herbicidal pre-emergence action; conditions: 1280 g/ha, graded after ca. 3 weeks
From the text: (§1) Seeds of mono- and dicotyledonous weed plants and crop plants were sown, in plastic or organic planting pots, in sandy loam and covered with soil. The compounds according to the invention, formulated in the form of wettable powders (WP) or as emulsifiable concentrates (EC), were applied to the surface of the covering soil as aqueous suspension or emulsion, with the addition of 0.5% of an additive, at an application rate of 600 1 of water/ha (converted).
(§2) Following treatment, the pots were placed in a greenhouse and kept under optimum growth conditions for the test plants. The visual grading of the damage to the test plants was carried out after ca. 3 weeks in comparison to untreated controls (herbicidal effect in percent (%): 100% effect=plants have died off, 0% effect=as control plants).
(§3) Tables A1 to A16, below, show the effects of selected compounds of the general formula (I) according to table 1 on various harmful plants and an application rate corresponding to 1280 g/ha or lower obtained by the experimental procedure mentioned above.

[2] = tested on: Polygonum convolvulus (POLCO); experiment: Herbicidal pre-emergence action; conditions: 1280 g/ha, graded after ca. 3 weeks
From the text: as §1, §2, §3

[3] = tested on: Echinochloa crus-galli (ECHCG); experiment: Herbicidal pre-emergence action; conditions: 1280 g/ha, graded after ca. 3 weeks
From the text: as §1, §2, §3

[4] = tested on: Avena fatua (AVEFA); experiment: Herbicidal pre-emergence action; conditions: 1280 g/ha, graded after ca. 3 weeks
From the text: as §1, §2, §3

[5] = tested on: Alopecurus myosuroides (ALOMY); experiment: Herbicidal pre-emergence action; conditions: 1280 g/ha, graded after ca. 3 weeks
From the text: as §1, §2, §3

[6] = tested on: Cyperus esculentus (CYPES); experiment: Herbicidal pre-emergence action; conditions: 1280 g/ha, graded after ca. 3 weeks
From the text: as §1, §2, §3

[7] = tested on: Lolium multiflorum (LOLMU); experiment: Herbicidal post-emergence action; conditions: 1280 g/ha, assessed after ca. 3 weeks
From the text: (§4) Seeds of mono- and dicotyledonous weed plants and crop plants were sown, in plastic or organic planting pots, in sandy loam, covered with soil and grown in a greenhouse under controlled growth conditions. 2 to 3 weeks after sowing, the test plants were sprayed in the single-leaf stage. The compounds according to the invention, formulated in form of wettable powders (WP) or as emulsifiable concentrates (EC), were sprayed onto the green plant parts as aqueous suspension or emulsion, with the addition of 0.5% of an additive, at an application rate of 600 1 of water/ha (converted). The test plants were placed in the greenhouse for ca. 3 weeks under optimum growth conditions, and then the effect of the preparations was assessed visually in comparison with untreated controls (herbicidal effect in percent (%): 100% effect=plants have died off, 0% effect=as control plants).
(§5) Tables B1 to B16 below show the effects of selected compounds of the general formula (I) according to table 1 on various harmful plants and an application rate corresponding to 1280 g/ha or 320 g/ha obtained by the experimental procedure mentioned above.

[8] = tested on: Echinochloa crus-galli (ECHCG); experiment: Herbicidal post-emergence action; conditions: 1280 g/ha, assessed after ca. 3 weeks
From the text: as §4, §5

[9] = tested on: Setaria viridis (SETVI); experiment: Herbicidal post-emergence action; conditions: 1280 g/ha, assessed after ca. 3 weeks
From the text: as §4, §5

[10] = tested on: Alopecurus myosuroides (ALOMY); experiment: Herbicidal post-emergence action; conditions: 1280 g/ha, assessed after ca. 3 weeks
From the text: as §4, §5

[11] = tested on: Lolium multiflorum (LOLMU); experiment: Herbicidal pre-emergence action; conditions: 1280 g/ha, graded after ca. 3 weeks
From the text: as §1, §2, §3

[12] = tested on: Setaria viridis (SETVI); experiment: Herbicidal pre-emergence action; conditions: 1280 g/ha, graded after ca. 3 weeks
From the text: as §1, §2, §3

[13] = tested on: Avena fatua (AVEFA); experiment: Herbicidal post-emergence action; conditions: 1280 g/ha, assessed after ca. 3 weeks
From the text: as §4, §5

Structure (SMILES) | Pre-emergence activity against VERPE [1] [%] | Pre-emergence activity against POLCO [2] [%] | Pre-emergence activity against ECHCG [3] [%] | Pre-emergence activity against AVEFA [4] [%] | Pre-emergence activity against ALOMY [5] [%] | Pre-emergence activity against CYPES [6] [%] | Post-emergence activity against LOLMU [7] [%] | Post-emergence activity against ECHCG [8] [%] | Post-emergence activity against SETVI [9] [%] | Post-emergence activity against ALOMY [10] [%] | Pre-emergence activity against LOLMU [11] [%] | Pre-emergence activity against SETVI [12] [%] | Post-emergence activity against AVEFA [13] [%]
CS(=O)(=O)NC(=O)CC1CCC(=O)N1Cc1cccc(Cl)c1Cl (racemic) [Example I-105] | 90 | – | – | – | – | – | – | – | – | – | – | – | –
COc1ccc(OCCOC(=O)CC2CCC(=O)N2Cc2cccc(F)c2F)cc1 (racemic) [Example I-031] | – | 80 | 80 | 100 | 90 | 80 | 90 | 90 | 80 | 90 | – | – | –
COC(=O)CC1CCC(=O)N1Cc1cccc(F)c1F (racemic) [Example I-008] | – | 90 | 90 | 100 | 90 | – | 80 | 90 | 80 | 80 | 80 | 90 | 90
O=C(CC1CCC(=O)N1Cc1cccc(F)c1F)OCCS(=O)(=O)c1ccccc1 (racemic) [Example I-032] | 80 | – | 80 | 100 | 90 | 80 | 90 | 90 | – | 80 | – | – | –
CC[C@@H](C)[C@@H](NC(=O)CC1CCC(=O)N1Cc1cccc(F)c1F)C(=O)O (single isomer, unassigned) [Example I-043] | – | – | 90 | 100 | 90 | – | 80 | 80 | 80 | 80 | 80 | 90 | 80
Cc1ccc(CN2C(=O)CCC2CC(=O)NS(C)(=O)=O)c(F)c1F (racemic) [Example I-087] | 100 | – | – | – | 90 | – | – | – | – | – | – | – | –
O=C(CC1CCC(=O)N1Cc1cccc(F)c1F)OCCSc1ccccc1 (racemic) [Example I-022] | – | – | – | 90 | 90 | – | 80 | 90 | 90 | – | – | 80 | 90
CCOC(=O)CC1CCC(=O)N1Cc1cccc(F)c1F (racemic) [Example I-019] | – | 90 | 90 | 100 | 90 | 80 | 90 | 80 | – | 80 | 90 | 90 | 100
O=C(CC1CCC(=O)N1Cc1cccc(F)c1F)OCC1CC1 (racemic) [Example I-020] | 80 | – | 80 | 100 | 80 | – | 80 | 90 | – | 80 | 80 | – | 90
CCCC(C)OC(=O)CC1CCC(=O)N1Cc1cccc(F)c1F (racemic) [Example I-028] | 80 | – | 80 | 100 | 80 | 80 | 80 | 80 | – | 80 | 90 | 80 | 80
Cc1nonc1NC(=O)CC1CCC(=O)N1Cc1cccc(F)c1F (stereo not drawn) [Example I-046, 2-[1-[(2,3-difluorophenyl)methyl]-5-oxo-pyrrolidin-2-yl]-N-(4-methyl-1,2,5-oxadiazol-3-yl)acetamide] | 100 | – | – | 100 | – | 100 | 80 | – | – | – | – | – | 90
NC(=O)CC1CCC(=O)N1Cc1cccc(F)c1F (racemic) [Example I-057] | – | 80 | – | 80 | 90 | 100 | – | – | – | – | – | 80 | –
Cc1ccc2c(c1)C(NC(=O)CC1CCC(=O)N1Cc1cccc(F)c1F)C(C)C2 (mixture of isomers) [Example I-106] | 80 | – | – | – | – | – | – | – | – | – | – | – | –
CC(C)C(C)OC(=O)CC1CCC(=O)N1Cc1cccc(F)c1F (racemic) [Example I-036] | 90 | 80 | 80 | 100 | 90 | – | – | 90 | – | 80 | 80 | 100 | 90
O=C(CC1CCC(=O)N1Cc1cccc(F)c1F)OC1CCC1 (racemic) [Example I-024] | – | 80 | 80 | 100 | 90 | 90 | 90 | 90 | 80 | 90 | 90 | 80 | 90
O=C(CC1CCC(=O)N1Cc1cccc(F)c1F)NCc1ccc(Cl)nc1 (racemic) [Example I-102] | 90 | 80 | – | – | – | – | – | – | – | – | – | – | –
CC(C)(C)COC(=O)CC1CCC(=O)N1Cc1cccc(F)c1F (racemic) [Example I-018] | 90 | 80 | 90 | 100 | 90 | 80 | 80 | 90 | – | 80 | 90 | 90 | 80
O=C(CC1CCC(=O)N1Cc1cccc(Cl)c1Cl)NS(=O)(=O)C(F)F (racemic) [Example I-095] | 80 | – | – | – | – | – | – | – | – | – | – | – | –
CCC(C)OC(=O)CC1CCC(=O)N1Cc1cccc(F)c1F (racemic) [Example I-030] | 90 | 80 | 80 | 100 | 90 | – | 80 | 80 | – | 80 | 80 | 80 | 80
